Holding throughout (assay): Automodification reaction, ADP-ribose Western blot / in-gel fluorescence after click to azido-rhodamine
Assay type in all cases: biochemical
Settings in all cases: FIG. 5I

For one test, the target named is T1, asPARP-1 (PARP-1 L877A) (Mus musculus, UniProt P11103, L876A).
T1 construct: relative to un-shifted full length PARP-1 measured by densitometry of anti-PARP-1 western blots; made in house; host or cells: Sf9 insect cells (baculovirus)
The procedure: (§1) In vitro automodification reactions. 200 ng PARP Protein was incubated in Automodification Buffer (30 mM HEPES, pH 8.0, 5 mM MgCl2, 5 mM CaCl2, 0.01% NP-40, 1 mM DTT, 100 ng/mL sonicated salmon sperm DNA (Stratagene), 100 ng/mL BSA (SIGMA)) with NAD^+ or NAD^+ analogs as indicated at 25° C. for 5 (PARP-1 and PARP2) or 30 minutes (PARP3) for Sf9-purified proteins and for 45 minutes for bacterially purified enzymes.
(§2) Reactions were stopped by addition of ⅓ reaction volume with 4×SDS-PAGE Loading Buffer (200 mM Tris, pH 6.8, 8% SDS, 40% Glycerol, 4% β-mercaptoethanol, 50 mM EDTA, 0.08% Bromophenol Blue) followed by boiling at 100° C. for 5 minutes. Reaction products in 1×SDS-PAGE buffer were then resolved on a 10% SDS-PAGE gel, transferred to a nitrocellulose membrane and blotted with a polyclonal antibody against PARP-1 or with an antibody-like detection reagent against ADP-ribose (MABE1016, Millipore). Relative quantitation of PARP-1 automodifications was performed by the ratio of PARylation-induced […] in SDS-PAGE mobility relative to un-shifted full length PARP-1 measured by densitometry of anti-PARP-1 western blots.
(§3) Reactions were stopped by methanol:chloroform precipitation (Wessel and Flugge, 1984). The protein pellets were clicked to azido-Rhodamine (Click Chemistry Tools) in Denaturing CC Buffer (100 mM HEPES, pH 8, 4 M Urea, 0.5 M NaCl, 2% CHAPS, 10 μM azido-Rhodamine, 1 mM THPTA (Click Chemistry Tools), 5 mM CuSO4, 5 mM Sodium Ascorbate) with Azido-Rhodamine, THPTA:CuSO4 complex, and Sodium Ascorbate each added sequentially in written order. […]
(§4) The automodification reactions were stopped by the addition of one third of a reaction volume of 4×SDS-PAGE Loading Buffer (200 mM Tris.HCl, pH 6.8, 8% SDS, 40% glycerol, 4% 3-mercaptoethanol, 50 mM EDTA, 0.08% bromophenol blue) followed by heating to 100° C. for 5 min. […] Relative quantification of PARP-1 automodification was performed using densitometry and was expressed as the ratio of the PARylation-induced decrease in PARP-1 mobility relative to non-shifted PARP-1. […]

For a further test, the target named is T2, asPARP-2 (L443A) (Homo sapiens, UniProt Q9UGN5, L443A).
T2 construct: made in house; host or cells: Sf9 insect cells (baculovirus)
Here is the method: as §1, §2, §3, §4

The target of another test is T3, asPARP-3 (L394A) (Mus musculus, UniProt Q3ULW8, L399A).
T3 construct: made in house; host or cells: Sf9 insect cells (baculovirus)
T3 sequence (Q3ULW8 1-528 isoform Q3ULW8-2 L394A): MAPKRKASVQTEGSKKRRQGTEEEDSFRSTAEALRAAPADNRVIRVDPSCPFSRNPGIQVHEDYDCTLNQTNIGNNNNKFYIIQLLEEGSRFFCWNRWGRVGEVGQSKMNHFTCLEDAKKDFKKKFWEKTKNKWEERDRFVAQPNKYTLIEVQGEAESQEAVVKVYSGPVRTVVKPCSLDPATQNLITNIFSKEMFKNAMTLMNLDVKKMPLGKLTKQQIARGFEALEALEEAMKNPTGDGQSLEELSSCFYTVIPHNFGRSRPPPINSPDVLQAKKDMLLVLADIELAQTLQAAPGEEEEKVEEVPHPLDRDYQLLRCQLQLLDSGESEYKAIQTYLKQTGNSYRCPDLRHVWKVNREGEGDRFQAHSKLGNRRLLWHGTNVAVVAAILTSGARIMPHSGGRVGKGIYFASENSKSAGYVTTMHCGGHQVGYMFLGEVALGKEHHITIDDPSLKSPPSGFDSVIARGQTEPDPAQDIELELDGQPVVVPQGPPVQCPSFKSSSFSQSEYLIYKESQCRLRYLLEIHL
Here is the method:
as §1, §2, §3, §4

“Also recorded” adds a separate entry of the source.

T2 sequence (Q9UGN5 whole entry L443A): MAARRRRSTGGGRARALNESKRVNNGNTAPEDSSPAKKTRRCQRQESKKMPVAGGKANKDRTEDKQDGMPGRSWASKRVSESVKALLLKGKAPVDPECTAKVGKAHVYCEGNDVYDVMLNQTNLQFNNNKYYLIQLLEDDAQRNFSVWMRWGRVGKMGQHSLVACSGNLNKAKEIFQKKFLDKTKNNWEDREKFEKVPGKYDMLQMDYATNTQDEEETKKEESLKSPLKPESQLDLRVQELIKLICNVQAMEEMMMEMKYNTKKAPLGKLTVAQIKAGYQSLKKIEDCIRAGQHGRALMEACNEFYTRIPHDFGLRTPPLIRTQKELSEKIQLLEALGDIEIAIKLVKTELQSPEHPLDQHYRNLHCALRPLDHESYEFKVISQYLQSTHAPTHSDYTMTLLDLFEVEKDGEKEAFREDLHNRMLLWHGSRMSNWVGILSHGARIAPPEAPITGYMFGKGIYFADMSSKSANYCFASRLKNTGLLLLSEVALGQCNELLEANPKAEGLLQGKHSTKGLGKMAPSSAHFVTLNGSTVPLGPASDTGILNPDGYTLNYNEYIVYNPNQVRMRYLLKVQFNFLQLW
T1 sequence (P11103 whole entry L876A): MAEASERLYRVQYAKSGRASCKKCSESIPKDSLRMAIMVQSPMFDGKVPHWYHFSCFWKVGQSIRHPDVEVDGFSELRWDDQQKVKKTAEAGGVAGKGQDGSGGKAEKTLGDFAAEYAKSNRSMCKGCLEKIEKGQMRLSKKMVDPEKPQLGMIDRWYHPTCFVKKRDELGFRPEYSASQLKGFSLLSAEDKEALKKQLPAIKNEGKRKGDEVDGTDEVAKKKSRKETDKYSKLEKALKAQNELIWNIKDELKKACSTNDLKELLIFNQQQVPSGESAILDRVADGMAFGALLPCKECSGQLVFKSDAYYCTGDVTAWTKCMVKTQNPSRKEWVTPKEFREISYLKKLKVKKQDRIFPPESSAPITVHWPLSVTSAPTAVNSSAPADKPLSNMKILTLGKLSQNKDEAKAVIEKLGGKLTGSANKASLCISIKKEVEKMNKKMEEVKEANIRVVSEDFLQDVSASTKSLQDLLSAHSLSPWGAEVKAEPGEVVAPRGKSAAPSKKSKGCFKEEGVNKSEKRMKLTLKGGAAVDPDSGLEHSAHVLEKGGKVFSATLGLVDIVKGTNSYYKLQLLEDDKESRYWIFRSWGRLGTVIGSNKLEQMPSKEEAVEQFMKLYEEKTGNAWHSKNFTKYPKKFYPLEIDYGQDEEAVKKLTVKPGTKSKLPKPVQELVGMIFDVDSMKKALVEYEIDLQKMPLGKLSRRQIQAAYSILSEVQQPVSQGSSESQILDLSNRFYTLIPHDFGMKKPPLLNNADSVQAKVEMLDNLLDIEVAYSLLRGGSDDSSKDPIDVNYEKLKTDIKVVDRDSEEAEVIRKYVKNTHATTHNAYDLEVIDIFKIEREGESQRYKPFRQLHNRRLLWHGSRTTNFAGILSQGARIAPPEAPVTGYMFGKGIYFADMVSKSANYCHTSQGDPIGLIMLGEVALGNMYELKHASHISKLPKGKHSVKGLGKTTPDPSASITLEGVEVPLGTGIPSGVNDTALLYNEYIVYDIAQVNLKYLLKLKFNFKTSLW

With `C#CCCSc1nc2c(N)ncnc2n1[C@@H]1O[C@H](COP(=O)(O)OP(=O)(O)OC[C@H]2O[C@@H]([n+]3cccc(C(N)=O)c3)C(O)C2O)[C@H](O)C1O` (stereo partly drawn) [8-Bu(3-yne)T-NAD^+], on asPARP-1 (PARP-1 L877A), the “catalytic activity of asPARP-1 with the NAD analog” value was “catalytically active”. Also, the “catalytic activity of asPARP-2 with the NAD analog” value on asPARP-2 (L443A) is “catalytically active; also recorded: supports activity”. Moreover, the “catalytic activity of asPARP-3 with the NAD analog” value at asPARP-3 (L394A) is “catalytically active; also recorded: supports activity”.

The values are drawn from patent publication US9926340B2, “NAD analogs and methods of using said NAD analogs in determining ribosylation of proteins with PARP mutants” (The Board of Regents of the University of Texas System, priority 2015, dated 2018).
